The structures appear in SMILES notation. Numbered stars: 1 amine (or outer) side, 2 acyl side, 3 side chain; on linkers, the order of the positions; unused ones are H or OH. Square brackets hold non-standard residues; d marks the D form. Peptide text beside a SMILES is read from it. * marks the point of attachment. Dolaproine = CO[C@@H]([C@@H]1CCCN1)[C@@H](C)C(=O)O; X1 = N[C@@H](CSC1CC(=O)N(CCCCCC(=O)*)C1=O)C(=O)O; Dil = CC[C@H](C)[C@H](NC)[C@@H](CC(=O)O)OC; PABC = O=C(OCc1ccc(N[*:1])cc1)[*:2]; X2 = C[C@@H](N*)[C@@H](O)c1ccccc1; NMeV = CN[C@H](C(=O)O)C(C)C

Assay [1] relates to BT-474 cells. As to the kind of experiment: In vitro cytotoxicity (CellTiter-Glo, 7 days), BT-474. It counts as cell-based, human. The following applies: BT-474, HER2+++; for IC50: Homo sapiens, 168 h. The method, then:
(§1) Human HER2-positive cell lines (BT-474, HCC1954, and NCI-N87) and HER2-negative cell lines (MCF-7 and MDA-MB-468) were purchased from the ATCC. Tumor cells were cultured in Roswell Park Memorial Institute (RPMI)-1640 medium (Cellgro, Manassas, VA, USA) supplemented with 10% fetal bovine serum (Invitrogen, Carlsbad, CA, USA) and GlutaMAX (Invitrogen, Carlsbad, CA, USA). Cells (3.3 × 10^4 cells/well) were added to each well of 384-well plates and incubated at 37 °C overnight, after which 10 μL of compound aliquots were added to the assay plate. […] Then, the plates were removed from the incubator and equilibrated at room temperature for 10 min. The Cell Titer Glo® (CTG, Promega, Madison, WI, USA) reagents were incubated at 37 °C before the experiment. The buffer was equilibrated to room temperature and used to dissolve the substrate. Then, 40 μL of CTG reagent was added to each well for detection (at 1:1 ratio to the culture medium).

The test system of assay [2] is MDA-MB-468 cells. As to the kind of experiment: In vitro cytotoxicity (CellTiter-Glo, 7 days), MDA-MB-468. It counts as cell-based, human. The following applies: MDA-MB-468, HER2−; for IC50: Homo sapiens, 168 h. The method, then: as §1
(In ATP-based viability assays light output follows the ATP content of the culture.)

Assay [3] deals with MCF-7 cells. As to the kind of experiment: In vitro cytotoxicity (CellTiter-Glo, 7 days), MCF-7. The class given is cell-based, human. The following applies: MCF-7, HER2−; for IC50: Homo sapiens, MCF7, 168 h. The procedure:
as §1

Assay [4] concerns HCC1954 cells. As to the kind of experiment: In vitro cytotoxicity (CellTiter-Glo, 7 days), HCC1954. It counts as cell-based, human. To be noted: HCC1954, HER2+++; for IC50: Homo sapiens, 168 h. The method, then:
as §1

The subject of assay [5] is NCI-N87 cells. Put plainly: In vitro cytotoxicity (CellTiter-Glo, 7 days), NCI-N87. The class given is cell-based, human. The following applies: NCI-N87, HER2+++; for IC50: Homo sapiens, 168 h. The method, then:
as §1

Assay [6] relates to HER2-positive cell lines (BT-474, HCC1954, and NCI-N87) and HER2-negative cell lines (MCF-7, and MDA-MB-468). Put plainly: In vitro cytotoxicity, summary over the cell line panel. It counts as cell-based, human. To be noted: from Table 2 IC50 values. The method, then: as §1
Assay [7] deals with tubulin. Put plainly: Tubulin polymerization inhibition assay (fluorescence-based kit). It counts as biochemical. The following applies: tested at 0.1-30 μM; mean of triplicate. The text has this:
In this study, we used a molecular-level tubulin inhibition assay to rapidly assess the efficacy of ionized conjugates to circumvent the effects of the differences in membrane permeability. […] All of the tested Cys-linker-MMAE conjugates produced concentration-dependent inhibition of tubulin polymerization, providing a basis for developing ADCs with Cys-linker-MMAE as potent payloads.
We used the Tubulin Polymerization Assay Kit (Cat. # BK011P, Cytoskeleton, Inc., Denver, CO, USA) according to the manufacturer’s instructions for this fluorescence-based test. Before this test, the linker-MMAE conjugates were added to an L-cysteine solution (0.3 mmol/L in H2O, 900 μL), and the mixture was incubated for 10 min at room temperature for the conversion to Cys-linker-MMAE conjugates according to previously reported methods.

The test system of assay [8] is cells (cellular level). The following applies: cited from earlier work.

By IC50 is commonly meant the concentration that inhibits the measured activity by half. As usually defined, the EC50 is the concentration needed to bring the measured effect to its halfway point. A higher EC50 goes with a need for much substance. Take `CC[C@H](C)[C@@H]([C@@H](CC(=O)N1CCC[C@H]1[C@H](OC)[C@@H](C)C(=O)N[C@H](C)[C@@H](O)c1ccccc1)OC)N(C)C(=O)[C@@H](NC(=O)[C@H](C(C)C)N(C)C(=O)OCc1ccc(NC(=O)CCCCCN2C(=O)CC(SC[C@H](N)C(=O)O)C2=O)cc1)C(C)C` (some centres unmarked) [Cys-15] ({X1-PABC}-[NMeV]V[Dil][Dolaproine]-X2): the “Max. Inhibition” value in assay [1] is recorded as 82.62%; in assay [2], 85.75%; in assay [3], 91.13%; in assay [4], 98.86%; in assay [5], 94.86%. The IC50 in assay [1] came out at 6.88 nM; in assay [2], 11.1 nM; in assay [3], 51.2 nM; in assay [4], 2.31 nM; in assay [5], 8.67 nM. The “Decrease in activity compared to MMAE in each cell line” value in assay [6] was 22–177 fold. Also, the response in assay [7] was half-maximal at 2320 nM (EC50).
As to `CCC(C)C(C(CC(=O)N1CCCC1C(OC)C(C)C(=O)NC(C)C(O)c1ccccc1)OC)N(C)C(=O)C(NC(=O)C(NC)C(C)C)C(C)C` (centres unmarked) [MMAE, Monomethyl auristatin E], the “Max. Inhibition” value is listed as 79.09% in assay [1], 93.14% in assay [3], 97.54% in assay [4] and 89.37% in assay [5]. In addition, the IC50 was 0.32 nM in assay [1]; 0.17 nM in assay [2]; 0.29 nM in assay [3]; 0.07 nM in assay [4]; 0.01 to 1 nM in assay [8]; 0.07 nM in assay [5]. For the same molecule, the EC50 in assay [7] came out at 1430 nM.
